Here are results for 11 compounds from article PMC9440028, “Neurotensin analogs by fluoroglycosylation at N^ω-carbamoylated arginines for PET imaging of NTS1-positive tumors” (Scientific Reports, 2022).

Where two headings read alike, the source gives them in different places.

A short description of series [1]: In vitro stability in human plasma/PBS (1:2 v/v) at 37 °C. The series is classed as in vitro ADME. Conditions: human blood plasma/PBS (1:2 v/v), read-out: % intact peptide in human plasma after the given incubation time; for remaining at 2 h, 100 µM: pH 7.4, 2 h; for remaining at 6 h, 100 µM: pH 7.4, 6 h; for remaining at 24 h, 100 µM: pH 7.4, 24 h; for remaining at 48 h, 100 µM: pH 7.4, 48 h; for remaining at 1 h, 100 µM: pH 7.4, 1 h; for remaining at 10 min, 100 µM: pH 7.4, 10 min; for remaining at 25 min, 100 µM: pH 7.4, 25 min. As for the experimental part:
The metabolic stabilities of 11–14, 16 and 18–21 (cf. Table 2) were investigated in human blood plasma/PBS (136.9 mM NaCl, 2.68 mM KCl, 5.62 mM Na2HPO4, 1.09 mM NaH2PO4 and 1.47 mM KH2PO4) pH 7.4 (1:2, v/v) according to a described procedure[13] with the following modifications: 5 mM stock solutions in EtOH/0.04% aq TFA (30:70 v/v) (11–13), MeCN/0.025% aq TFA (30:70 v/v) (14), MeCN/0.04% aq TFA (30:70 v/v) (16, 19 and 21) or EtOH/H2O (40:60 v/v) (18, 20) were used for the addition of the peptides to plasma/PBS (1:2 v/v). As the RP-HPLC purity of 1-Methyl-D-Trp (internal standard, IS) was < 95% (data not shown), the compound was purified by preparative HPLC to give a purity of > 99%. The concentration of the peptides in plasma/PBS (1:2 v/v) was 80 and 4 µM (recovery determination) or 100 µM (stability tests). The obtained recoveries and the recovery ratios (peptide/internal standard) are summarized in Supplementary Table S1. Data analysis was based on UV detection at 220 nm. Additionally, the stability of compound 21 was investigated in mouse plasma/PBS (1:2 v/v) using the same procedure as described above for human plasma. Mouse plasma was obtained by the collection of blood from anaesthetized mice via cardiac puncture using a syringe that was rinsed with sodium heparin (25,000 I.E., Ratiopharm, Ulm, Germany). The heparinized blood was transferred into a 2-mL reaction vessel, followed by centrifugation (1200 g, 4 °C, 10 min). The supernatants were pooled, centrifuged again (1200 g, 4 °C, 10 min), the plasma was aliquoted and stored at − 80 °C. The concentration of 21 in plasma/PBS (1:2 v/v) was 80 and 4 μM (recovery determination) or 100 μM (stability tests). The obtained recoveries and the recovery ratios (21/IS) are summarized in Supplementary Table S2. Data analysis was based on UV detection at 220 nm.

Another series concerns the target T1, hNTS1R (Homo sapiens, UniProt P30989).
T1 construct: at hNTS1R expressing intact human HT-29 colon carcinoma cells; endogenous in cells; host or cells: HT-29 human colon carcinoma cells (intact)
The series can be described thus: Radioligand competition binding with [^3H]UR-MK300 at intact HT-29 cells. Conditions: [^3H]UR-MK300 (Kd = […], c = 1 nM), 23 °C. As for the experimental part: Unspecific binding was subtracted from total binding to obtain specific binding. Data analysis was performed by plotting % specifically bound radioligand (100% = specifically bound radioligand in the absence of competitor) over log(concentration of competitor) followed by a four-parameter logistic fit (SigmaPlot 12.5, Systat Software). […] The Ki values from individual experiments were transformed to pKi values, followed by the calculation of mean pKi values ± SEM.
In general terms: Displacement assays read how much labelled ligand stays bound in the presence of the test substance.

Setting [2] is: read-out: pKi ± SEM (converted).

T1 sequence (P30989 whole entry): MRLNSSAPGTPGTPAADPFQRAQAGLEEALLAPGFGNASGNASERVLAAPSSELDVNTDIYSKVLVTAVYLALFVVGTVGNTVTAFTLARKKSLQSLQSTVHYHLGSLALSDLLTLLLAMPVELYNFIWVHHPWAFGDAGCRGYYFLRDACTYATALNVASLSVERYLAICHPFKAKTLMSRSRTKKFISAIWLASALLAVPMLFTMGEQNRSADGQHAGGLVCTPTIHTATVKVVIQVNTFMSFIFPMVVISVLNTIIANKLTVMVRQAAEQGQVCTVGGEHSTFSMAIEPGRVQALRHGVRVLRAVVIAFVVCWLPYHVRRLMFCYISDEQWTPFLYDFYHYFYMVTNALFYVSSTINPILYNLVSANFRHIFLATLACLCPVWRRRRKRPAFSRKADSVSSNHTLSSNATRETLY

As for `CN[C@@H](CCCNC(=N)N)C(=O)N[C@@H](CCCNC(=N)NC(=O)NCCCCc1cn([C@@H]2O[C@H](CF)[C@@H](O)[C@H](O)[C@H]2O)nn1)C(=O)N1CCC[C@H]1C(=O)N[C@@H](Cc1ccc(O)cc1)C(=O)N[C@H](C(=O)N[C@@H](CC(C)C)C(=O)O)C(C)(C)C` [Compound 13, N^α-(N^α-methylarginyl)-{N^ω-[N-(4-{1-[6-deoxy-6-fluoro-β-D-glucopyranosyl]-1H-1,2,3-triazol-4-yl}butyl)aminocarbonyl]}Arg-Pro-Tyr-2-tert-butyl-Gly-Leu-OH tris(hydrotrifluoroacetate)], in series [1], the remaining at 2 h, 100 µM was above 99%; the remaining at 6 h, 100 µM was above 99%; the remaining at 24 h, 100 µM was above 99%; the remaining at 48 h, 100 µM was 96 ± 1%. The Ki result at hNTS1R (mean) is recorded as “one-digit nanomolar range”. Also, the Ki on hNTS1R (mean, read-out: Ki (converted)) was 6.2 nM.
Regarding `CN[C@@H](CCCNC(=N)NC(=O)NCCCCN)C(=O)N[C@@H](CCCNC(=N)N)C(=O)N1CCC[C@H]1C(=O)N[C@@H](Cc1ccc(O)cc1)C(=O)N[C@H](C(=O)N[C@@H](CC(C)C)C(=O)O)C(C)(C)C` [Compound 16, N^α-methyl-N^ω-[(4-aminobutyl)aminocarbonyl]Arg-Arg-Pro-Tyr-2-tert-butyl-Gly-Leu-OH tetrakis(hydrotrifluoroacetate)], in series [1], the remaining at 1 h, 100 µM was above 99%; the remaining at 6 h, 100 µM was above 99%; the remaining at 24 h, 100 µM is above 99%; the remaining at 48 h, 100 µM was above 99%. Besides, at hNTS1R (mean, read-out: Ki (converted)), the Ki is 2.8 nM.
As for `C#CCCC(=O)NCCCCNC(=O)NC(=N)NCCC[C@H](N)C(=O)N[C@@H](CCCNC(=N)N)C(=O)N1CCC[C@H]1C(=O)N[C@@H](Cc1ccc(O)cc1)C(=O)N[C@H](C(=O)N[C@@H](CC(C)C)C(=O)O)C(C)(C)C` [Compound 18, H-{N^ω-[N-(4-pent-4-ynoylaminobutyl)aminocarbonyl]}Arg-Arg-Pro-Tyr-2-tert-butyl-Gly-Leu-OH tris(hydrotrifluoroacetate)], in series [1], the remaining at 10 min, 100 µM was determined as 59 ± 1%; the remaining at 1 h, 100 µM is below 1%; the remaining at 6 h, 100 µM is below 1%; the remaining at 24 h, 100 µM is below 1%. The Ki at hNTS1R (mean, read-out: Ki (converted)) was 4.4 nM. Besides, the Ki at hNTS1R (setting [2]) is 4.27 nM.
Take `CC(C)C[C@H](NC(=O)[C@@H](NC(=O)[C@H](Cc1ccc(O)cc1)NC(=O)[C@@H]1CCCN1C(=O)[C@H](CCCNC(=N)N)NC(=O)[C@@H](N)CCCNC(=N)NC(=O)NCCCCNC(=O)CCc1cn([C@@H]2O[C@H](CF)[C@@H](O)[C@H](O)[C@H]2O)nn1)C(C)(C)C)C(=O)O` [Compound 20, H-(N^ω-{N-[4-(3-{1-[6-deoxy-6-fluoro-β-D-glucopyranosyl]-1H-1,2,3-triazol-4-yl}propanoyl)aminobutyl]aminocarbonyl})Arg-Arg-Pro-Tyr-2-tert-butyl-Gly-Leu-OH tris(hydrotrifluoroacetate)]: in series [1], the remaining at 10 min, 100 µM was 78 ± 1%; the remaining at 1 h, 100 µM stood at 6.4 ± 0.1%; the remaining at 24 h, 100 µM was below 1%. For the same compound, on hNTS1R (mean, read-out: Ki (converted)), the Ki is 2.5 nM.
As for `C#CCCCCNC(=O)NC(=N)NCCC[C@H](NC(=O)[C@H](CCCNC(=N)N)NC)C(=O)N1CCC[C@H]1C(=O)N[C@@H](Cc1ccc(O)cc1)C(=O)N[C@H](C(=O)N[C@@H](CC(C)C)C(=O)O)C(C)(C)C` [Compound 9, N^α-(N^α-methylarginyl)-N^ω-(5-hexynylaminocarbonyl)Arg-Pro-Tyr-2-tert-butyl-Gly-Leu-OH tris(hydrotrifluoroacetate)], the Ki at hNTS1R (mean, read-out: Ki (converted)) is 7.7 nM; on hNTS1R (setting [2]) it was 7.41 nM.
On the same counts, the results for `C#CCCCCNC(=O)NC(=N)NCCC[C@H](N)C(=O)N[C@@H](CCCNC(=N)N)C(=O)N1CCC[C@H]1C(=O)N[C@@H](Cc1ccc(O)cc1)C(=O)N[C@H](C(=O)N[C@@H](CC(C)C)C(=O)O)C(C)(C)C` [Compound 7, H-(N^ω-5-hexynylaminocarbonyl)Arg-Arg-Pro-Tyr-2-tert-butyl-Gly-Leu-OH tris(hydrotrifluoroacetate)] are 4.6 nM and 4.37 nM.
On to `CC(C)C[C@H](NC(=O)[C@@H](NC(=O)[C@H](Cc1ccc(O)cc1)NC(=O)[C@@H]1CCCN1C(=O)[C@H](CCCNC(=N)N)NC(=O)[C@@H](N)CCCNC(=N)NC(=O)NCCCCN)C(C)(C)C)C(=O)O` [Compound 14, N^ω-[(4-aminobutyl)aminocarbonyl]Arg-Arg-Pro-Tyr-2-tert-butyl-Gly-Leu-OH tetrakis(hydrotrifluoroacetate)], for which, in series [1], the remaining at 10 min, 100 µM amounted to 50 ± 2%; the remaining at 1 h, 100 µM is below 1%; the remaining at 6 h, 100 µM was below 1%; the remaining at 24 h, 100 µM is below 1%. For the same compound, at hNTS1R (mean, read-out: Ki (converted)), the Ki is 2.2 nM. Besides, at hNTS1R (setting [2]), the Ki is 2.04 nM.
Take `CC(C)C[C@H](NC(=O)[C@@H](NC(=O)[C@H](Cc1ccc(O)cc1)NC(=O)[C@@H]1CCCN1C(=O)[C@H](CCCNC(=N)NC(=O)NCCCCc1cn([C@@H]2O[C@H](CF)[C@@H](O)[C@H](O)[C@H]2O)nn1)NC(=O)[C@@H](N)CCCNC(=N)N)C(C)(C)C)C(=O)O` [Compound 12, H-Arg-{N^ω-[N-(4-{1-[6-deoxy-6-fluoro-β-D-glucopyranosyl]-1H-1,2,3-triazol-4-yl}butyl)aminocarbonyl]}Arg-Pro-Tyr-2-tert-butyl-Gly-Leu-OH tris(hydrotrifluoroacetate)]: in series [1], the remaining at 10 min, 100 µM came to 86 ± 1%; the remaining at 25 min, 100 µM came out at 28 ± 1%; the remaining at 1 h, 100 µM is below 1%; the remaining at 2 h, 100 µM was below 1%. Also, on hNTS1R (mean, read-out: Ki (converted)), the Ki is 5.8 nM. In addition, at hNTS1R (setting [2]), the Ki is 5.5 nM.
Consider `C#CCCCCNC(=O)NC(=N)NCCC[C@H](NC(=O)[C@@H](N)CCCNC(=N)N)C(=O)N1CCC[C@H]1C(=O)N[C@@H](Cc1ccc(O)cc1)C(=O)N[C@H](C(=O)N[C@@H](CC(C)C)C(=O)O)C(C)(C)C` [Compound 8, H-Arg-(N^ω-5-hexynylaminocarbonyl)Arg-Pro-Tyr-2-tert-butyl-Gly-Leu-OH tris(hydrotrifluoroacetate)], for which the “pKi ± SEM” value on hNTS1R is 8.03 ± 0.03. At hNTS1R (mean, read-out: Ki (converted)), the Ki is 9.4 nM.
For the compound `CC(C)C[C@H](NC(=O)[C@@H](NC(=O)[C@H](Cc1ccc(O)cc1)NC(=O)[C@@H]1CCCN1C(=O)[C@H](CCCNC(=N)N)NC(=O)[C@@H](N)CCCNC(=N)NC(=O)NCCCCc1cn([C@@H]2O[C@H](CF)[C@@H](O)[C@H](O)[C@H]2O)nn1)C(C)(C)C)C(=O)O` [Compound 11, H-{N^ω-[N-(4-{1-[6-deoxy-6-fluoro-β-D-glucopyranosyl]-1H-1,2,3-triazol-4-yl}butyl)aminocarbonyl]}Arg-Arg-Pro-Tyr-2-tert-butyl-Gly-Leu-OH tris(hydrotrifluoroacetate)], in series [1], the remaining at 10 min, 100 µM was 72 ± 1%; the remaining at 25 min, 100 µM stood at 24 ± 1%; the remaining at 1 h, 100 µM was 1.1 ± 0.1%; the remaining at 2 h, 100 µM is below 1%. At hNTS1R (mean, read-out: Ki (converted)), the Ki was 4.6 nM.
As to `C#CCCC(=O)NCCCCNC(=O)NC(=N)NCCC[C@H](NC)C(=O)N[C@@H](CCCNC(=N)N)C(=O)N1CCC[C@H]1C(=O)N[C@@H](Cc1ccc(O)cc1)C(=O)N[C@H](C(=O)N[C@@H](CC(C)C)C(=O)O)C(C)(C)C` [Compound 19, N^α-methyl-{N^ω-[N-(4-pent-4-ynoylaminobutyl)aminocarbonyl]}Arg-Arg-Pro-Tyr-2-tert-butyl-Gly-Leu-OH tris(hydrotrifluoroacetate)], in series [1], the remaining at 1 h, 100 µM is above 99%; the remaining at 6 h, 100 µM was above 99%; the remaining at 24 h, 100 µM is above 99%; the remaining at 48 h, 100 µM came out at 99 ± 1%. On hNTS1R (mean, read-out: Ki (converted)), the Ki is 7.7 nM.
